Laboratory results taken from patent US20230233569A1 (Revolution Medicines, Inc., priority 2020, published 2023).

Assays:
[1] = system: 4EBP1 (Thr37/46) phosphorylation (mTORC1) in MDA-MB-468 cells; assay: Cell based AlphaLISA assay, mTOR kinase cellular assay: inhibition of p-4E-BP1 (T37/46) in MDA-MB-468 cells; conditions: Homo sapiens, read-out: pIC50 for Inhibition of mTORC1 and mTORC2 Substarte Phosphorylation p-4E-BP1-(T37/46) (converted)
How it was run: (§1)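 MDA-MB-468 cells treated with compound at 0.017-1,000 nM for two to four hours at 37° C, then lysed. Phospho-AKT1/2/3 S473, 4EBP1 T37/46 and P70S6K T389 quantified by AlphaLISA SureFire Ultra in duplicate; IC50 from normalized regression with control-based normalization.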

[2] = system: P70S6K (Thr389) phosphorylation (mTORC1) in MDA-MB-468 cells; assay: Cell based AlphaLISA assay, mTOR kinase cellular assay: inhibition of p-P70S6K (T389) in MDA-MB-468 cells; conditions: Homo sapiens, read-out: pIC50 for Inhibition of mTORC1 and mTORC2 Substarte Phosphorylation p-P70S6K-(T389) (converted)
Experimental: Cell Based AlphaLISA Assays for Determining IC50 For Inhibition of P-Akt (S473), P-4E-BP1 (T37/46), and P-P70S6K (T389) in MDA-MB-468 Cells
mTOR Kinase Cellular Assay
To measure functional activity of mTORC1 and mTORC2 in cells the phosphorylation of 4EBP1 (Thr37/46) and P70S6K (Thr389), and AKT1/2/3 (Ser473) was monitored using AlphaLisa SureFire Ultra Kits (Perkin Elmer). MDA-MB-468 cells (ATCC® HTB-132) were cultured in 96-well tissue culture plates and treated with compounds in the disclosure at concentrations varying from 0.017-1,000 nM for two to four hours at 37° C. Incubations were terminated by removal of the assay buffer and addition of lysis buffer provided with the assay kit. Samples were processed according to the manufacturer's instructions. The Alpha signal from the respective phosphoproteins was measured in duplicate using a microplate reader (Envision, Perkin-Elmer or Spectramax M5, Molecular Devices). Inhibitor concentration response curves were analyzed using normalized IC50 regression curve fitting with control based normalization.

[3] = system: AKT1/2/3 (Ser473) phosphorylation (mTORC2) in MDA-MB-468 cells; assay: Cell based AlphaLISA assay, mTOR kinase cellular assay: inhibition of p-Akt (S473) in MDA-MB-468 cells; conditions: Homo sapiens, read-out: pIC50 for Inhibition of mTORC1 and mTORC2 Substarte Phosphorylation p-AKT1/2/3-(S473) (converted)
How it was run: as §1

SMILES | IC50 [1] | IC50 [2] | IC50 [3]
CO[C@H]1C[C@@H]2CC[C@@H](C)[C@@](O)(O2)C(=O)C(=O)N2CCCC[C@H]2C(=O)O[C@H]([C@H](C)C[C@@H]2CC[C@@H](OC(=O)NCCOCCOCCOCCOCCOCCOCCOCCOCCC(=O)N3CCc4cc(Cn5nc(-c6ccc7oc(N)nc7c6)c6c(N)ncnc65)ccc4C3)[C@H](OC)C2)CC(=O)[C@H](C)/C=C(\C)[C@@H](O)[C@@H](OC)C(=O)[C@H](C)C[C@H](C)/C=C/C=C/C=C/1C [Example 2] | ≤ 3.16 nM | ≤ 1 nM | 3.16 to 31.6 nM
CO[C@H]1C[C@@H]2CC[C@@H](C)[C@@](O)(O2)C(=O)C(=O)N2CCCC[C@H]2C(=O)O[C@H]([C@H](C)C[C@@H]2CC[C@@H](OC(=O)NCCOCCOCCOCCOCCC(=O)NCCOCCOCCOCCOCCC(=O)N3CCc4cc(Cn5nc(-c6ccc7oc(N)nc7c6)c6c(N)ncnc65)ccc4C3)[C@H](OC)C2)CC(=O)[C@H](C)/C=C(\C)[C@@H](O)[C@@H](OC)C(=O)[C@H](C)C[C@H](C)/C=C/C=C/C=C/1C [Example 15] | ≤ 3.16 nM | ≤ 1 nM | 3.16 to 31.6 nM
CO[C@H]1C[C@@H]2CC[C@@H](C)[C@@](O)(O2)C(=O)C(=O)N2CCCC[C@H]2C(=O)O[C@H]([C@H](C)C[C@@H]2CC[C@@H](OC(=O)NCCOCCOCCOCCOCCC(=O)NCCOCCOCCOCCOCCC(=O)N3CCc4cc(Cn5nc(-c6ccc7oc(N)nc7c6)c6c(N)ncnc65)ccc4C3)[C@H](OC)C2)C[C@@H](O)[C@H](C)/C=C(\C)[C@@H](O)[C@@H](OC)C(=O)[C@H](C)C[C@H](C)/C=C/C=C/C=C/1C [Example 16] | ≤ 3.16 nM | ≤ 1 nM | ≤ 3.16 nM
CO[C@H]1C[C@@H]2CC[C@@H](C)[C@@](O)(O2)C(=O)C(=O)N2CCCC[C@H]2C(=O)O[C@H]([C@H](C)C[C@@H]2CC[C@@H](OC(=O)NCCOCCOCCOCCOCCC(=O)NCCOCCOCCOCCOCCC(=O)N3CCc4cc(Cn5nc(-c6ccc7oc(N)nc7c6)c6c(N)ncnc65)ccc4C3)[C@H](OC)C2)C[C@@H](OC)[C@H](C)/C=C(\C)[C@@H](O)[C@@H](OC)C(=O)[C@H](C)C[C@H](C)/C=C/C=C/C=C/1C [Example 17] | ≤ 3.16 nM | ≤ 1 nM | 3.16 to 31.6 nM
CO[C@H]1C[C@@H]2CC[C@@H](C)[C@@](O)(O2)C(=O)C(=O)N2CCCC[C@H]2C(=O)O[C@H]([C@H](C)C[C@@H]2CC[C@@H](OC(=O)NCCOCCOCCOCCOCCC(=O)NCCOCCOCCOCCOCCC(=O)NCCCCn3nc(-c4cnc5[nH]ccc5c4)c4c(N)ncnc43)[C@H](OC)C2)CC(=O)[C@H](C)/C=C(\C)[C@@H](O)[C@@H](OC)C(=O)[C@H](C)C[C@H](C)/C=C/C=C/C=C/1C [Example 18] | 3.16 to 31.6 nM | ≤ 1 nM | 31.6 to 1000 nM
CO[C@H]1C[C@@H]2CC[C@@H](C)[C@@](O)(O2)C(=O)C(=O)N2CCCC[C@H]2C(=O)O[C@H]([C@H](C)C[C@@H]2CC[C@@H](OC(=O)NCCOCCOCCOCCOCCOCCOCCOCCOCCC(=O)N3CCC(n4nc(-c5ccc6oc(N)nc6c5)c5c(N)ncnc54)CC3)[C@H](OC)C2)CC(=O)[C@H](C)/C=C(\C)[C@@H](O)[C@@H](OC)C(=O)[C@H](C)C[C@H](C)/C=C/C=C/C=C/1C [Example 19] | ≤ 3.16 nM | ≤ 1 nM | ≤ 3.16 nM
CO[C@H]1C[C@@H]2CC[C@@H](C)[C@@](O)(O2)C(=O)C(=O)N2CCCC[C@H]2C(=O)O[C@H]([C@H](C)C[C@@H]2CC[C@@H](OC(=O)NCCOCCOCCOCCOCCOCCOCCOCCOCCOCCOCCC(=O)N3CCC(n4nc(-c5cnc6[nH]ccc6c5)c5c(N)ncnc54)CC3)[C@H](OC)C2)CC(=O)[C@H](C)/C=C(\C)[C@@H](O)[C@@H](OC)C(=O)[C@H](C)C[C@H](C)/C=C/C=C/C=C/1C [Example 20] | ≤ 3.16 nM | ≤ 1 nM | ≤ 3.16 nM
